From article PMC9115112, “A2B adenosine receptor antagonists rescue lymphocyte activity in adenosine-producing patient-derived cancer models” (Journal for Immunotherapy of Cancer, 2022)

Columns and labels:
human A3AR = molecular target: T1, human A3AR (Homo sapiens, UniProt P0DMS8); test: Radioligand binding, human A3AR ([3H]NECA, transfected HeLa cells); conditions: displacement of [3H]NECA, n=3, racemic mixtures
T1 construct: expressed in transfected cells; host or cells: HeLa
T1 sequence (P0DMS8 1-318): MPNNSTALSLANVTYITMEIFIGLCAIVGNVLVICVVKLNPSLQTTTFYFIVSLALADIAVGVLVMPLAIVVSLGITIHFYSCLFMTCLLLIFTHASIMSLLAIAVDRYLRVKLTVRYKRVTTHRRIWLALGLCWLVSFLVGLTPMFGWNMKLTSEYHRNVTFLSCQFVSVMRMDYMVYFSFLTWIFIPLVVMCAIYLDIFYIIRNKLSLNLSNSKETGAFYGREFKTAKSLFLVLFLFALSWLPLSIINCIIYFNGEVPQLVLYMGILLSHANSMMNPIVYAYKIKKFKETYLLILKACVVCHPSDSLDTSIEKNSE
Method: The affinity and selectivity profiles of the ligands obtained was studied in vitro, radioligand binding assays, at the four human specific ARs subtypes, using experimental protocols previously described.[28–30] All ligands were prepared and tested as racemic mixtures. […] Non-specific binding was determined in the presence of R-PIA 10 µM for A1AR, NECA 50 µM for A2AAR, NECA 400 μΜ for A2BAR and R-PIA 100 μΜ for A3AR.

[1] = test system: breast cancer patient-derived spheroid cultures; test: Cell viability assay (Cell-Titer Glo) on breast cancer patient-derived spheroid cultures; type: cell-based, human; conditions: 4 days exposure
Method: From breast cancer single cell suspension, 3×10^3 cells were seeded and cultured in an ultra-low attachment 384-well plate (Corning) with DMEM-F12 media (Thermo Fisher Scientific) containing 20% FBS and 1% PS. Treatment with A2BAR antagonist at various concentrations are stated in the Results section. After 4 days, Cell-Titer Glo reagent (Promega) was used to measure cell viability in accordance to the manufacturer’s instruction. EnSpire Multilabel Reader (PerkinElmer) was used to read the luminescence.
(§1) Figure 2 Antitumor effect of A2BAR antagonists on breast cancer patient-derived spheroid cultures. (A) Relative cell viability to untreated antagonist control spheroid cultures (n=3, mean±SD) measured by Cell-Titer Glo assay. (B) Representative real time imaging of spheroid cultures over 6 days under 4X objective, with untreated (first column) or added 12 µM concentration respective of A2BAR antagonists indicated. Red mask demarcates area with cells surrounding the spheroid. Green line indicates estimated diameter of spheroid body. (C) Relative area of the representative spheroid growth (as shown in B) normalized to day 1. Statistical analysis—2-way (A) and 1-way (C) ANOVA with Dunnett’s multiple comparisons to untreated antagonist control was performed with *p<0.05, **p<0.01, ***p<0.001, and ****p<0.0001.

[2] = test system: breast cancer patient-derived spheroid cultures; test: Real-time imaging (IncuCyte) of breast cancer patient-derived spheroid growth; type: cell-based, human; conditions: middle antagonist concentration (12 µM in figure 2), 6 days real-time imaging
Method: Brightfield and phase contrast images under 4X objective were acquired every 6 hours on IncuCyte S3 system (Essen BioScience). For breast cancer patient-derived spheroid culture, 1×10^4 cells per well were seeded with A2BAR antagonist at 12 µM treatment for 6 days real time imaging. For spheroid infiltration, after the addition of CSFE-labeled autologous expanded TILs and treatment with A2BAR antagonist at 12 µM, green fluorescence images were acquired for 3 days. All spheroid invasion analysis was performed using top hat segmentation with IncuCyte software.
as §1

[3] = test system: pAMPK in CD4 and CD8 T cells; test: Extracellular ADO uptake assay via pAMPK staining; type: cell-based, human; conditions: antagonist 12 µM, 50 µM exogenous adenosine, n=7 healthy donors
Method: Experimental setup was adopted from a previous study whereby AR antagonist was added to pretreat cells before exogenous adenosine treatment for intracellular and cytokine staining.[37] In brief, PBMCs were treated with 12 µM of A2BAR antagonists for 90 min before the addition of 50 µM of adenosine for 2 hours. Cells were harvested after 3 hours of CD3/CD28 bead stimulation before intracellular staining with phosphor-AMPK (Thr183, Thr172) rabbit primary antibody (Thermo Fisher Scientific) and antirabbit secondary antibody (BD biosciences).
(§2) Figure 4 Rescue of lymphocyte proinflammatory cytokine production IFNy and perforin by A2BAR antagonism. (A,B) Inhibition of extracellular adenosine uptake via phosphorylated-AMP activated protein kinase (pAMPK) staining (n=7 healthy donors). Production of proinflammatory cytokines—(C,D) IFNy and (E) perforin in CD4 (n=5 healthy donors) and CD8 (n=6 healthy donors) T cells. Expression of CD69 adhesion molecule in (F). CD4 (n=7 healthy donors) and (G) CD8 (n=4 healthy donors) T cells. A2BAR antagonist 12 µM was added. Outlier is presented as diamond shape and defined by Tukey’s rule, which is not included in statistical analysis. Box plots with minimum, first quartile, median, third quartile, and maximum are presented. Normalized fold change is based on percent values compared with untreated controls. Unpaired and non-parametric statistical analysis—Mann-Whitney test was performed against untreated control with *p<0.05, **p<0.01, ***p<0.001, and ****p<0.0001.

[4] = test system: CD4 and CD8 T cells (healthy donor PBMCs); test: IFNy and perforin cytokine production assay, with CD69 expression (flow cytometry); type: cell-based, human; conditions: antagonist 12 µM; for IFNy production in CD8 T cells: n=6 healthy donors
Method: Similar experimental setup was performed as the extracellular ADO uptake assay. Cells were harvested after 2 days of CD3/CD28 bead stimulation before treatment with PMA/ionomycin (Sigma Aldrich) and golgi-inhibitors (BD biosciences). After 3 hours of subsequent incubation, intracellular staining was performed for IFNy and perforin (online supplemental table 1).
as §2

Compound	Ki hA3 (human A3AR)	Relative cell viability of breast cancer spheroids vs untreated control ([1]; n=3)	Relative cell viability of breast cancer spheroids vs untreated control ([1]; n=3, listed as ISAM–M89A)	Spheroid growth over time (relative area) vs untreated control [2]	pAMPK (extracellular ADO uptake) in CD8 T cells [3]	CD69 expression in CD8 T cells ([4]; n=4 healthy donors)	CD69 expression in CD4 T cells ([4]; n=7 healthy donors)	IFNy production in CD4 T cells ([4]; exogenous adenosine, n=5 healthy donors)	IFNy production in CD8 T cells ([4]; exogenous adenosine)	Ki (human A3AR; read-out: Ki hA3) [nM]	pAMPK (extracellular ADO uptake) in CD4 T cells [3]	IFNy production by T cells on adenosine suppression (subset not given) ([4]; exogenous adenosine)	Perforin production by CD8 T cells on adenosine suppression ([4]; exogenous adenosine)	Perforin production by CD8 T cells on adenosine suppression ([4]; exogenous adenosine, listed as ISAM–R56A)
CC1=C(C(=O)OC(C)C)C(c2ccoc2)n2c(nc3cc(Cl)ccc32)N1 (centres unmarked) [ISAM-M89A]	devoid of affinity	more pronounced effect	significantly reduced	significantly affected the spheroid growth over time	significantly inhibited ADO uptake	positive effect	positive effect							
CC1=C(C(=O)OC(C)C)C(c2ccco2)n2c(nc3ccccc32)N1 (centres unmarked) [ISAM-140, isopropyl 4-(furan-2-yl)−2-methyl-1,4-dihydrobenzo[4 5] imidazo[1,2 a]pyrimidine-3-carboxylate]		significantly reduced		significantly affected the spheroid growth over time				upregulated IFNy production	upregulated IFNy production					
CC1=C(C(=O)OC(C)C)C(c2ccco2)n2c(nc3ccccc32)N1Cc1ccccc1F (centres unmarked) [ISAM-R56A]		significantly reduced		significantly affected the spheroid growth over time	significantly downregulated pAMPK				significantly rescued	> 1000	significantly downregulated pAMPK	significantly improved	significantly improved	significantly rescued
